[ ]: non-standard residue; d: D form.
What was measured:
[1] = tested on: βTC-3 cell cultures; type: cell-based
Protocol: The ability of the L- and D-enantiomeric forms of TAT and inventive TAT-IB1(s) peptides (“TAT-IB peptides”) to enter cells was evaluated. L-TAT, D-TAT, inventive L-TAT-IB1(s), and inventive D-TAT-IB1(s) peptides [SEQ ID NOs: 5, 6, 9 and 12, respectively] were labeled by N-terminal addition of a glycine residue conjugated to fluorescein. Labeled peptides (1 μM) were added to βTC-3 cell cultures, which were maintained as described in Example 3. At predetermined times cells were washed with PBS and fixed for five minutes in ice-cold methanol-acetone (1:1) before being examined under a fluorescence microscope. Fluorescein-labeled BSA (1 μM, 12 moles/mole BSA) was used as a control.
Little to no signal was present at 48 hours.
Fluorescent signals from these all-D retro-inverso peptides were still very strong 1 week later, and the signal was only slightly diminished at 2 weeks post treatment.

[2] = tested on: βTC-3 cells; experiment: IL-1β induced pancreatic β-cell death, peptide treatment, propidium iodide / Hoechst 33342 staining; type: cell-based; details: for long term inhibition of IL-1β induced cell-death: IL-1β 10 ng/ml every two days, 15 days
Protocol: We investigated the effects of the inventive L-TAT-IB(s) peptides on the promotion of β-cell apoptosis elicited by IL-1. βTC-3 cell cultures were incubated for 30 minutes with 1 μM of inventive L-TAT-IB1(s) peptides followed by 10 ng/mL of IL-1. A second addition of peptide (1 μM) was performed 24 hours later. Apoptotic cells were counted after two days of incubation with IL-1 β using propidium iodide (red stained cell are dead cells) and Hoechst 33342 (blue stained cell are cells with intact plasma membrane) nuclear staining.
Long term inhibition of IL-1 induced cells death was examined by treating βTC-3 cells as described above, except that incubation of the cells with the peptides and IL-1 β was sustained for 12 days. Additional peptides (1 μM) were added each day and additional IL-1 β (10 ng/mL) was added every 2 days. […] Taken together, these experiments provide evidence that inventive TAT-IB(s) peptides are biologically active molecules able to prevent the effects of JNK signaling on cell fate.
Inhibition of IL-1 β induced pancreatic β-cell death by the inventive D-TAT-IB1(s) peptide was analyzed. βTC-3 cells were incubated as described above for 30 minutes with one single addition of the indicated peptides (1, μM), then IL-1 (10 ng/ml) was added.
Apoptotic cells were then counted after two days of incubation with IL-1 β by use of Propidium Iodide and Hoechst 33342 nuclear staining. A minimum of 1,000 cells were counted for each experiment. Standard Error of the Means (SEM) are indicated, n=5.
Long term inhibition of IL-1P induced cell-death by the D-TAT-IB1 peptide was also analyzed. βTC-3 cells were incubated as above for 30 minutes with one single addition of the indicated peptides (1 μM), then IL-1 β (10 ng/ml) was added, followed by addition of the cytokine every two days. Apoptotic cells were then counted after 15 days of incubation with IL-1 by use of propidium iodide and Hoechst 33342 nuclear staining. […] A minimum of 1.000 cells were counted for each experiment.

[3] = tested on: WiDr cells; experiment: Irradiation (30 Gy) induced apoptosis; type: cell-based, human; details: 1 μM added 30 minutes before 30 Gy, analyzed 48 hours later
Protocol: JNK is also activated by ionizing radiation. To determine whether inventive TAT-IB(s) peptides would provide protection against radiation-induced JNK damage, “WiDr” cells were irradiated (30 Gy) in presence or absence of D-TAT, inventive L-TAT-IB1(s) or inventive D-TAT-IB1(s) peptides (1 μM added 30 minutes before irradiation). Control cells (CTRL) were not irradiated. Cells were analyzed 48 hours later by means of PI and Hoechst 3342 staining, as described above. N=3, SEM are indicated.

[4] = tested on: AP-1 DNA binding complex; experiment: Gel retardation assay with AP-1 probe, nuclear extracts of TNF-α treated HeLa cells; type: cell-based; details: peptide added 30 minutes before TNF-α 5 ng/ml
[5] = tested on: recombinant JNK1, JNK2, or JNK3 kinases; experiment: Solid phase kinase assay, phosphorylation of c-Jun, ATF2 and Elk1 by recombinant JNKs; type: biochemical
Protocol: (§1) The effects of the peptides on JNKs-mediated phosphorylation of their target transcription factors were investigated in vitro. Recombinant and non activated JNK1, JNK2 and JNK3 were produced using a TRANSCRIPTION AND TRANSLATION rabbit reticulocyte lysate kit (Promega) and used in solid phase kinase assays with c-Jun, ATF2 and Elk1, either alone or fused to glutathione-S-transferase (GST), as substrates. Dose response studies were performed wherein inventive L-TAT or L-TAT-IB1(s) peptides (0-25 μM) were mixed with the recombinant JNK1, JNK2, or JNK3 kinases in reaction buffer (20 mM Tris-acetate, 1 mM EGTA, 10 mM p-nitrophenyl-phosphate (pNPP), 5 mM sodium pyrophosphate, 10 mM p-glycerophosphate, 1 mM dithiothreitol) for 20 minutes. The kinase reactions were then initiated by the addition of 10 mM MgCl2 and 5 pCi […] and 1 μg of either GST-Jun (aa 1-89), GST-AFT2 (aa 1-96) or GST-ELK1 (aa 307-428). GST-fusion proteins were purchased from Stratagene (La Jolla, Calif.).
Ten μL of glutathione-agarose beads were also added to the mixture. Reaction products were then separated by SDS-PAGE on a denaturing 10% polyacrylamide gel. Gels were dried and subsequently exposed to X-ray films (Kodak). […] The ability of D-TAT, inventive D-TAT-IB1(s) and inventive L-TAT-IB1(s) peptides (0-250 μM dosage study) to inhibit GST-Jun (aa 1-73) phosphorylation by recombinant JNK1, JNK2, and JNKS by were analyzed as described above. Overall, D-TAT-IB1(s) peptide decreased JNK-mediated phosphorylation of c-Jun, but at levels approximately 10-20 fold less efficiently than L-TAT-IB1(s).

[6] = target: T1, JNK3 (Homo sapiens, UniProt P53779); experiment: Solid phase kinase assay, JNK3 phosphorylation of Elk1; type: biochemical; details: dose response 0-25 μM, GST-ELK1 (aa 307-428)
T1 construct: host or cells: cell-free: rabbit reticulocyte lysate transcription/translation
T1 sequence (P53779 whole entry, species assumed, the tested form may be a part): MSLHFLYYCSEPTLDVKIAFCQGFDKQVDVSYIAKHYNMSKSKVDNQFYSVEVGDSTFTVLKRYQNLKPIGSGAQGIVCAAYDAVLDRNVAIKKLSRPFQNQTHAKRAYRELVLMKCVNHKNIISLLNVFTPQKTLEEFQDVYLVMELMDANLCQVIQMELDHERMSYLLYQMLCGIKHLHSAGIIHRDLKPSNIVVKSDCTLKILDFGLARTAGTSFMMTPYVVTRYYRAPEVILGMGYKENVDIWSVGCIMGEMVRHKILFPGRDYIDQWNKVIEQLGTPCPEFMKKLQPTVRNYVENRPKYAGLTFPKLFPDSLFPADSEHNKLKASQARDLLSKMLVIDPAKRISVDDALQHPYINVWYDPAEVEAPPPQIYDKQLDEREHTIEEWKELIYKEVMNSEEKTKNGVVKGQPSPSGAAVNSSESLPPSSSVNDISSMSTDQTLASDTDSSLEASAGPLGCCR
Protocol: as §1
Ten μL of glutathione-agarose beads were also added to the mixture. Reaction products were then separated by SDS-PAGE on a denaturing 10% polyacrylamide gel. […] The ability of D-TAT, inventive D-TAT-IB1(s) and inventive L-TAT-IB1(s) peptides (0-250 μM dosage study) to inhibit GST-Jun (aa 1-73) phosphorylation by recombinant JNK1, JNK2, and JNKS by were analyzed as described above. […]

[7] = tested on: activated JNKs; experiment: c-Jun phosphorylation by activated JNKs pulled down with GST-Jun from UV-light irradiated HeLa cells or IL-1β treated βTC-3 cells; type: biochemical; details: peptide 25 μM for 20 minutes
Protocol: The effects of the L-TAT or inventive L-TAT-IB1(s) peptides on JNKs activated by stressful stimuli were evaluated using GST-Jun to pull down JNKs from UV-light irradiated HeLa cells or IL-1 β treated PTC cells. PTC cells were cultured as described above. HeLa cells were cultured in DMEM medium supplemented with 10% Fetal Calf Serum, 100 μg/mL Streptomycin, 100 units/ml Penicillin and 2 mM Glutamine. One hour prior to being used for cell extract preparation, PTC cells were activated with IL-1 β as described above, whereas HeLa cells were activated by UV-light (20 J/m^2). Cell extracts were prepared from control, UV-light irradiated HeLa cells and IL-1β treated βTC-3 cells by scraping the cell cultures in lysis buffer (20 mM Tris-acetate, 1 mM EGTA, 1% Triton X-100, 10 mM p-nitrophenyl-phosphate, 5 mM sodium pyrophosphate, 10 mMP-glycerophosphate, 1 mM dithiothreitol). Debris was removed by centrifugation for five minutes at 15,000 rpm in an SS-34 Beckman rotor. One-hundred μg extracts were incubated for one hour at room temperature with one μg GST-jun (amino acids 1-89) and 10 μL of glutathione-agarose beads (Sigma). Following four washes with the scraping buffer, the beads were resuspended in the same buffer supplemented with L-TAT or inventive L-TAT-IB1(s) peptides (25 μM) for 20 minutes. […]

[8] = tested on: JNK signaling; experiment: Heterologous GAL4 system (GAL-Jun / 5xGAL-LUC luciferase reporter) in HeLa cells with MKK4/MKK7 activation of JNK; type: cell-based; details: peptide 1 μM
Text: To determine whether the inventive cell-permeable peptides could block JNK signaling in vivo, we used a heterologous GAL4 system. HeLa cells, cultured as described above, were co-transfected with the 5×GAL-LUC reporter vector together with the GAL-Jun expression construct (Stratagene) comprising the activation domain of c-Jun (amino acids 1-89) linked to the GAL4 DNA-binding domain. Activation of JNK was achieved by the co-transfection of vectors expressing the directly upstream kinases MKK4 and MKK7 (see Whitmarsh et al., Science 285: 1578 (1999)). Briefly, 3×10^5 cells were transfected with the plasmids in 3.5-cm dishes using DOTAP (Boehringer Mannheim) following instructions from the manufacturer. For experiments involving GAL-Jun, 20 ng of the plasmid was transfected with 1 μg of the reporter plasmid pFR-Luc (Stratagene) and 0.5 μg of either MKK4 or MKK7 expressing plasmids. Three hours following transfection, cell media were changed and TAT and TAT-IB1(s) peptides (1 μM) were added. The luciferase activities were measured 16 hours later using the “Dual Reporter System” from Promega after normalization to protein content. […] Because HeLa cells express JNK1 and JNK2 isoforms but not JNK3, we transfected cells with JNK3.

[9] = tested on: JNK; details: JBDs; cited from earlier work
[10] = Focal cerebral ischaemia, transient MCAO model, infarct volume; type: in vivo, male ICR-CD1 mice
Text: Evaluation of neuroprotection by inventive chimeric peptides after iv administration against focal cerebral ischaemia, in a transient MCAO model (see FIG. 4).
Transient ischemia in adult mice. Using male ICR-CD1 mice (6 weeks old; 18-37 g; Harlan), we provoked ischemia by introducing a filament from the common carotid artery into the internal carotid and advancing it into the arterial circle, thereby occluding the middle cerebral artery. We measured regional cerebral blood flow by laser Doppler flowmetry, with a probe fixed on the skull throughout the ischemia until 10 min after reperfusion. Rectal temperature was measured and maintained at 37° C. The mice were killed 48 h after reperfusion. Serial cryostat sections 20 μm thick were traced using a computer-microscope system equipped with the Neurolucida program (MicroBrightField) and the volumes of the ischemic area and of the whole brain were calculated (blinded) with the Neuroexplorer program. XG−102 0.3=0.3 mg/kg,XG−102 1=1 mg/kg, XG−102 5=5 mg/kg
The infarct volume sizes (mm^3) after bolus iv administration of placebo and XG-102 0.3, […] 6 hours after reperfusion (30 minutes clamp) in an adult mice model were as follows.

NH2-RRRQRRKKRG-COOH (D-amino acids) [D-TAT, reference compound]
stability inside the cells [1]: extremely stable inside the cells

NH2-GRKKRRQRRRPPRPKRPTTLNLFPQVPRSQD-COOH (H-GRKKRRQRRRPPRPKRPTTLNLFPQVPRSQD-OH) [L-TAT-IB1(s)]
long term inhibition of IL-1β induced cell-death ([2]; one single addition 1 μM): but not inventive L-TAT-IB1 (s), was able to confer long term (15 day) protection
prevention of irradiation induced apoptosis [3]: able to prevent irradiation induced apoptosis
formation of the AP-1 DNA binding complex [4]: decrease the formation of the AP-1 DNA binding complex in the presence of TNF-α

NH2-GRKKRRQRRRPPRPKRPTTLNLFPQVPRSQD-COOH (H-GRKKRRQRRRPPRPKRPTTLNLFPQVPRSQD-OH) [TAT-IB(s)]
inhibition of JNK family phosphorylation of target transcription factors, overall [5]: superior effects in inhibiting JNK family phosphorylation of their target transcription factors
peptide dose giving nearly complete inhibition of c-Jun, ATF2 and Elk1 phosphorylation by JNKs ([5]; dose response 0-25 μM, GST-Jun (aa 1-89), GST-AFT2 (aa 1-96), GST-ELK1 (aa 307-428)): ≥ 2.5 µM
inhibition of JNK3 phosphorylation of Elk1 [6]: absence of TAT-IB(s) inhibition of JNKS phosphorylation of Elk1
prevention of c-Jun phosphorylation by activated JNKs [7]: efficiently prevented phosphorylation of c-Jun by activated JNKs
activation of c-Jun (luciferase) in cells transfected with JNK3 ([8]; HeLa cells transfected with JNK3): inhibited JNK2 mediated activation of c-Jun
activation of c-Jun (luciferase) following MKK4 and MKK7 mediated activation of JNK ([8]; luciferase 16 hours later): blocked activation of c-Jun following MKK4 and MKK7 mediated activation of JNK
inhibition of IL-1 induced apoptosis ([2]; 1 μM, second addition at 24 hours, IL-1 10 ng/mL, two days): inhibited IL-1-induced apoptosis of βTC-3 cells
long term inhibition of IL-1 induced cell death ([2]; 12 days, peptide 1 μM added each day, IL-1β 10 ng/mL every 2 days): confers strong protection against apoptosis
long term inhibition of IL-1β induced cell-death ([2]; one single addition 1 μM, listed as TAT-IB 1): does not confer long-term protection

IPSPSVEEPHKHRPTTLRLTTLGAQDS (IPSPSVEEPHKHRPTTLRLTTLGAQDS) [1B2-long]
efficiency in binding JNK relative to c-Jun or ATF2 [9]: approximately 100 fold

NH2-DQSRPVQPFLNLTTPRKPRPPRRRQRRKKRG-COOH (H-[dD][dQ][dS][dR][dP][dV][dQ][dP][dF][dL][dN][dL][dT][dT][dP][dR][dK][dP][dR][dP][dP][dR][dR][dR][dQ][dR][dR][dK][dK][dR]G-OH) [XG102]
infarct volume sizes, moyenne ([10]; 0.3 mg/kg bolus iv 6 hours after reperfusion (30 minutes clamp), n = 5, 48 h after reperfusion): 16 mm^3
infarct volume sizes, moyenne ([10]; 1 mg/kg bolus iv 6 hours after reperfusion (30 minutes clamp), n = 1, 48 h after reperfusion): 16 mm^3
infarct volume sizes, moyenne ([10]; XG102 3 group, bolus iv 6 hours after reperfusion (30 minutes clamp), n = 5, 48 h after reperfusion): 15 mm^3

PGTGCGDTYRPKRPTTLNLFPQVPRSQDT (PGTGCGDTYRPKRPTTLNLFPQVPRSQDT) [IB1-long]
efficiency in binding JNK relative to c-Jun or ATF2 [9]: approximately 100 fold

TDQSRPVQPFLNLTTPRKPRYTDPPRRRQRRKKRG (TDQSRPVQPFLNLTTPRKPRYTDPPRRRQRRKKRG) [D-TAT-IB1, reference compound]
inhibition of IL-1β induced apoptosis ([2]; one single addition 1 μM, IL-1 10 ng/ml, two days, n=5): decreased IL-1 induced apoptosis to a similar extent as L-TAT-IB peptides

From US8080517B2, “Cell-permeable peptide inhibitors of the JNK signal transduction pathway” (Xigen SA, priority 2005, dated 2011)
